Here are results for 1 compound from PMC3923778 (PLoS Currents, 2014).

The test system of data set [1] is cGMP levels in the striatum. The data set is described as follows: Microdialysis PD: cGMP in striatal extracellular dialysate. In kind it is in vivo, mouse. To be noted: male R6/2. The method, then:
Microdialysis PK/PD studies were conducted at Brains Online, Inc. (San Francisco, CA, USA)
Male R6/2 (CBA/C57Bl/6 strain, CAG 120) mice aged 7-8 weeks (20 - 30 g; The Jackson Laboratory, USA) were used for the experiments. The animals were group housed in plastic cages (3-4 animals / cage) and had access to food and water ad libitum. Experiments were conducted in accordance with the declarations of Helsinki and were approved by the Institutional Animal Care and Use Committee of the University of California, San-Francisco.
Mice were anesthetized using isoflurane (2%, 800 mL/min O2). Bupivacain/epinephrine was used for local anesthesia. Carprophen was used peri-/post-operative as analgesia. The animals were placed in a stereotaxic frame (Kopf instruments, USA), and microdialysis probes were inserted into the striatum. Coordinates for the tips of the probes were for striatum: […] (AP) = +0.8 mm to bregma, lateral (L) = -1.7 mm to midline and ventral (V) = -4.0 mm to dura, the toothbar was set at 0.0 mm (Paxinos and Franklin, 2001). […] After surgery animals were kept individually in cages and provided food and water ad libitum. Animals were fasted the night before the experiment.
Experiments were performed one day after surgery. On the day of the experiment, the probes of the animals were connected with flexible PEEK tubing to a microperfusion pump (Syringe pump UV 8301501, Univentor, Malta). MQ probes were perfused with aCSF containing 0.2% albumin at a flow rate of 0.10 µL/min. As the carrier flow, ultrapurified H2O was used at a flow rate of 0.70 µL/min. I-shaped probes were perfused with aCSF at a flow rate of 1.5 µL/min. Microdialysis samples were collected for 30-minute periods by an automated fraction collector (CMA 142, Sweden) into mini-vials. Samples originating from I-shaped probes were collected into mini-vials already containing 15 µL of 0.02 M formic acid. 10 µL of 0.02 M formic acid was added in the samples originating from MQ probes. […] Following compound administration, microdialysate samples continued to be collected for 240 min at 30 minute intervals. All dialysis samples were stored at -80 °C.
Concentrations of cGMP were determined by HPLC with tandem mass spectrometry (MS/MS) detection. Standard samples were prepared in artificial dialysate matrix, consisting of 3 parts (v/v) aCSF mixed with 1 part 0.02M formic acid in ultrapurified H2O. Final concentrations of standard samples were 0.02, 0.05, 0.1, 0.2, 0.5, 1, 2, 5 and 10 nM. Quality control (QC) samples were prepared independently. Final concentrations were 0.3 (QClow), 0.75 (QCmid) and 7.5 (QChigh) nM. […]
Treatment effects were evaluated among different drug concentrations and also compared to baseline, using two-way ANOVA for repeated measurements followed by Student-Newman-Keuls post-hoc test. […]

Data set [2] in a line: Pharmacokinetic analysis in mice. Format: in vivo, mouse. To be noted: for half-life: read-out: Half-life (t1/2) (converted); for Tmax: read-out: Observed Tmax. The method, then: All PK studies were conducted at Charles River Laboratories (CRL), MA, USA. CRL is fully accredited by the Association for Assessment and Accreditation of Laboratory Animal Care International (AAALAC), and is registered with the United States Department of Agriculture (USDA). All procedures involving animals were conducted humanely and were performed by trained and experienced personnel. The individual study protocols were reviewed and approved by the IACUC of CRL. A total of 48 male C57BL/6NCRL mice were used. Animals were acclimated to the study room environment for 5 days prior to dose administration. Mice were individually housed in micro isolator cages, and were kept on a 12/12 hour light/dark cycle except when interrupted for study procedures. Mice were fed LabDiet Certified Rodent Diet 5002 food ad libitum, except during fasting prior to dose administration, and had access to water ad libitum. […] For the iv doses, the compound was formulated at 1 mg/mL as a dose solution in 2% […] (NMP), 14% Propylene Glycol (PG), 14% Solutol HS–15, 70% 50mM Citrate, pH 4.5 , by volume. For the po dose, the compound was formulated at 1 mg/mL as a solution in 30% PG, 20% Solutol HS–15, 50% 50mM Citrate, pH 4.5, by volume. Aliquots (25 μL) of samples, plasma, and tissue blanks (containing internal standard only), plasma and tissue double blanks (without internal standard), control blanks (solvent only), diluted dose (dilute in plasma from the study species prior to extraction) and matrix calibration standards were dispensed into 96-well plates. Extracting solution with internal standard (100 μL) was added to all samples except matrix double blanks and solvent blanks. Extracting solution without internal standard (100 μL) was added to matrix double blanks. Samples were vortexed and centrifuged for 5 minutes, and the supernatants were transferred to a new plate. An aliquot (50 μL) of Milli-Q water was added to the samples, which were covered and vortexed for 5 minutes. […] Reserpine was used as an internal standard in the LC-MS/MS assay. Mice were divided into four groups of 3 animals each. Two blood samples were collected from each mouse following dosing; the second collection was a terminal sample and brains were also collected at that time as follows: Group 1 at 0.083 and 0.5 hr, Group 2 at 0.25 and 2 hr, Group 3 at 1 and 8 hr and Group 4 at 4 and 24 hr., and brain tissue time points at 0.5, 2, 8 and 24 hr. Non-compartmental pharmacokinetic analyses of the plasma concentration time course were performed using WinNonlin, version 5.2 (Pharsight Corp., Mountain View, California).

The mark [3] stands for this setting: male, C57BL/6NCRL, mouse, 5 mg/kg, Brain, IV 5.0 (mg eq./kg).
Where [4] appears, read: male, C57BL/6NCRL, mouse, 5 mg/kg, Plasma, IV 5.0 (mg eq./kg).

The structures appear in SMILES notation. “Also recorded” adds a separate entry of the source. Read-outs that look alike come from different tables or passages of the source.

`CN1C(=O)c2nc(Cc3ccc(C(F)(F)F)cc3)[nH]c2N2C1=N[C@H]1CCC[C@H]12` [SCH-51866, (+)-cis-5,6a,7,8,9,9a-hexahydro-2-[4-[trifluro-methyl]phenylmethyl]-5-methyl-cylopent[4,5]imidazo [2,1-b]purin-4(3H)one]: the entries for the “Elevation in cGMP in extracellular dialysate over baseline” value in data set [1] (3 mg/kg po acute), in data set [1] (10 mg/kg po acute) and in data set [1] (30 mg/kg po acute) were “not”, “significantly elevated cGMP levels; also recorded: significant over baseline” and “significantly elevated cGMP levels; also recorded: significant over baseline”, respectively. For the same compound, the “accumulation of cGMP versus dose” value in data set [1] (acute po) was “increased dose-proportionally”. Moreover, the “brain concentration at Tmax exceeds the biochemical IC50 for PDE1” value in data set [2] (after oral administration) is ~ 7 fold. For the same compound, in data set [2] (following dosing), the “time through which concentrations in brain were measurable for all animals” value stood at 8 h. The AUC(0-inf) in data set [2] (setting [3]) stood at 8.23 µM·h; in data set [2] (setting [4]) it was 7.35 µM·h. In addition, the area under the curve AUC(0-t) in data set [2] (setting [3]) stood at 8.18 µM·h; in data set [2] (setting [4]), 7.31 µM·h; in data set [2] (male, C57BL/6NCRL, mouse, 10 mg/kg, Brain, PO 10.0 (mg eq./kg)) it was 2.2 µM·h. The figures for the half-life in data set [2] (setting [3]) and in data set [2] (setting [4]) were 1.08 h and 3.87 h, respectively. Also, the maximum concentration (Cmax) in data set [2] (male, C57BL/6NCRL, mouse, 5 mg/kg, Brain, IV 5.0 (mg eq./kg), read-out: Observed Cmax) was 3560 nM; in data set [2] (male, C57BL/6NCRL, mouse, 10 mg/kg, Brain, PO 10.0 (mg eq./kg), read-out: Observed Cmax) it was 475 nM; in data set [2] (male, C57BL/6NCRL, mouse, plasma, 10 mg/kg po in mice, read-out: plasma Cmax exposure), 2400 nM. In addition, the MRT in data set [2] (male, C57BL/6NCRL, mouse, 5 mg/kg, Plasma, IV 5.0 (mg eq./kg), read-out: Mean Residence Time (MRT)) came to 2.57 h. The clearance in data set [2] (male, C57BL/6NCRL, mouse, 5 mg/kg, Plasma, IV 5.0 (mg eq./kg), read-out: Plasma Clearance (CLp) (converted)) was 29.2 mL/min/kg. In addition, the Vd in data set [2] (male, C57BL/6NCRL, mouse, 5 mg/kg, Plasma, IV 5.0 (mg eq./kg), read-out: Volume of Distribution at Steady State (Vdss)) is 4.48 L/kg. For the same compound, the time to peak (Tmax) stood at 0.5 h in data set [2] (male, C57BL/6NCRL, mouse, brain, iv, 5 mg/kg, Brain, IV 5.0 (mg eq./kg)) and 2 h in data set [2] (male, C57BL/6NCRL, mouse, brain, po, 10 mg/kg, Brain, PO 10.0 (mg eq./kg)). In addition, the Kp in data set [2] (male, C57BL/6NCRL, mouse, brain, oral, 10 mg eq./kg, mice, read-out: Brain-to-plasma concentration ratios) lay within 0.1 to 0.4.
